In data set [1] the test system is rat stomachs. The data set is described as follows: Gastric pathology following inflammatory stress and indomethacin, food-deprived rats (Example 21). It counts as in vivo. The protocol: (§1) Stress was induced by the following procedure. On day one, under ether anesthesia, 18 male Sprague Dawley rats were injected with a suspension of Zymosan A (1 mg/ml in normal saline; Sigma Chemical Co.) in each hind paw. Swelling developed and persisted. This treatment generated activated blood complement locally (including the C5a moiety), which then spread by the bloodstream throughout the animal.
(§2) Twenty-four hours later all rat paws were reinjected, this time with 0.1 ml of proinflammatory zymosan-activated rat serum containing additional amounts of inflammatory complement fragment C5a (as in Example 23, hereinafter). Five hours later 30 mg/kg indomethacin in an aqueous suspension was given to nine such rats by oral garage. These rats also received a subcutaneous injection of 0.1 ml normal saline. Nine other such rats were given indomethacin as above, and Compound III (50 mg/kg in normal saline subcutaneously). Four additional rats, not stressed (normal) were given water by garage as a placebo and saline subcutaneously. All rats were fed ad libitum on standard diet.
In contrast to the study of Example 20, above, in this study animals were food deprived for 24 hours before and also during the 24 hours following drug treatments. All animals were subjected to the inflammatory stress as described in Example 20. Eight such rats received 30 mg/kg indomethacin, and eight rats received indomethacin and Compound III (subcut., 50 mg/kg). Four rats, not stressed, were given placebo by garage.
All animals were sacrificed by ether euthanasia 24 hours later, and their stomachs evaluated for ulcer-related pathology.
In the stressed animals given indomethacin alone, pathology was much more severe than in Example 20. For scoring, therefore, the frequency of ulcers per rat stomach was quantified, and whether they were or were not bleeding.

A further data set relates to hind limbs. The data set is described as follows: Hind-foot mobility in established adjuvant arthritis (Example 27). Conditions: Compound III 50 mg/kg oral where given. It counts as in vivo, Lewis rats. The source says: Adjuvant arthritis was studied because it allows gaining of insight into effects of a drug in established and chronic inflammatory disease. Adjuvant arthritis shares certain features with rheumatoid arthritis but it is distinct. It is widely used in industry because it allows one to predict the potency of non-steroidal anti-inflammatory drugs (NSAID's) [Weichman, in Pharmaceutical Methods in the Control of Inflammation, Chang et al., eds.; Alan R. Liss, New York (1989) p. 362].
The rats used were of the Lewis strain, especially vulnerable to disease induction. Chronic polyarthritis was induced by the subcutaneous injection of complete Freund's adjuvant (CFA) into the rat tail. The CFA employed consists of 10 mg/ml heat-killed tubercle bacilli suspended in paraffin oil. An amount of 0.1 ml was injected, and the disease was allowed to develop over 14 days before daily assessments were made and treatments were initiated. Measurements that assess both increase in hind paw joint swelling and loss in hind limb function are taken.
Indomethacin was employed as a reference standard and given at 2 or 5 mg/kg. Treatment effects of Compound III, alone at 50 mg/kg given by oral gavage and in combination with indomethacin were assessed. Compound III was dissolved in water and indomethacin was suspended in water by homogenization. Both were administered sequentially by oral gavage.
Measurements by caliper include the lateral diameter of the ankle joint of each hind limb, and the dorsoventral diameter of the foot, just behind the toes. The prime measurement of function focusses on the fact that in many animals by day 14, and in most animals by day 16 after adjuvant administration, the arthritic rat can lose use of his hind limbs, which then are dragged behind him like logs. To quantify the recovery of function during treatment, a technique of Martel et al., Agents Actions, 15:403 (1984) was adapted. A blind assessment of the number of animals in each group that were able to draw their leg(s) under them and have these bear weight was carried out.

The test system of a further data set is rat paw. Conditions: in vivo; cited from earlier work.
In a further data set the test system is stomach ulcers. The data set is described as follows: Gastric ulcers in rats with corona virus infection treated with indomethacin (Example 26). It counts as in vivo, rat. Conditions: indomethacin 30 mg/kg oral; cimetidine 25 mg/kg s.c. or Compound III 17.5 mg/kg s.c. where given; P<0.02. The source says:
Corona virus is a non-lethal upper respiratory viral pathogen that not infrequently infects rat colonies. It is a type of rodent coryza or catarrh, the equivalent of a disease that falls somewhere between human influenza and a severe common cold. The animals of this study suffered from this condition, a circumstance which was evident by observation, and which was confirmed by virological diagnosis at the Biological Resources Laboratory of the University of Illinois at Chicago. Since stress is a common component of peptic ulcer development in both animals and man, it was concluded that this feature of the status of these experimental animals rendered them appropriate for an ulcer study.
In this study, animals were not food deprived and were divided into treatment groups such that 15 rats received 30 mg/kg indomethacin alone (in water by oral gavage), 14 rats received indomethacin plus an injection of 25 mg/kg cimetidine subcutaneously, and 7 rats received indomethacin plus subcutaneous injection of 17.5 mg/kg of Compound III.
All animals were sacrificed by ether euthanasia 24 hours later and their stomachs evaluated for ulcer pathology. In this study ulcers were not hemorrhagic. Results are shown below as the average number of stomach ulcers per stomach.

In data set [2] the test system is rat stomachs. Put plainly: Gastric pathology following inflammatory stress and indomethacin, fed rats (Example 20). Details: species or system male Sprague Dawley rats. Conditions: in vivo.
Data set [3] concerns rat stomachs. The data set is described as above. It counts as in vivo, male Sprague Dawley rats. Conditions: stress + indomethacin 30 mg/kg oral; Compound III 50 mg/kg subcutaneously where given; 24 hours. The protocol:
as §1, §2
Twenty-four hours later all animals were sacrificed by ether euthanasia. Their stomachs were washed with saline and evaluated for ulcer-related pathology using an illuminated magnifying glass. This assay is similar to that reported by Kinney et al., J. Med. Chem., 33:327 (1990).

Where “and” joins values, the source holds several entries; their conditions need not be identical. Equal values may be shown once.

In the case of `COc1ccc2c(c1)c(CC(=O)O)c(C)n2C(=O)c1ccc(Cl)cc1` [Indomethacin], the “bleeding ulcers in group” value with rat stomachs [1] (eight rats) is listed as 22. The “total ulcers found in group” value with rat stomachs [1] (eight rats) was 23 ulcers. Also, the “Bleeding Ulcer Frequency, Mn ± SE” value with rat stomachs [1] (indomethacin 30 mg/kg, Compound III 50 mg/kg subcut. where given, 24 hours, P<0.001 vs indomethacin alone) was 2.65 ± 0.063 Per Rat. The “Total Ulcer Frequency, n ± SE” value with rat stomachs [1] (indomethacin 30 mg/kg, Compound III 50 mg/kg subcut. where given, 24 hours, P<0.01 vs indomethacin alone) is listed as 2.88 ± 0.67 Per Rat. Moreover, the “ulcers per affected rat” value with rat stomachs [1] (indomethacin: all eight rats, indomethacin + Compound III: only two rats) is 1-5 ulcers. In addition, the “Total Immobility - Percent” value with hind limbs (Day 0, indomethacin 2 mg/kg/day) is 100%; with hind limbs (Day 0, indomethacin 5 mg/kg/day) it was 100%; with hind limbs (Day 1, indomethacin 2 mg/kg/day, p < 0.02), 67%; with hind limbs (Day 1, indomethacin 5 mg/kg/day, p < 0.01), 70%; in the data set on hind limbs (Day 2, indomethacin 2 mg/kg/day, p < 0.01), 44%; with hind limbs (Day 2, indomethacin 5 mg/kg/day) it was 20%. Further, the “Total Immobility - Percent” value was determined as 44% with hind limbs (Day 3, indomethacin 2 mg/kg/day) and 10% in the data set on hind limbs (Day 3, indomethacin 5 mg/kg/day, control 100 (12/12)). Moreover, in the data set on rat paw, the “effect on edema that develops following removal of the tourniquet, in words” value is on record as “not effective at any time”. For the same molecule, in the data set on stomach ulcers, the “Ulcer Frequency per stomach, Mn ± SE” value is listed as 2.53 ± 0.52 Per Stomach. Besides, the “ulceration by indomethacin without stress” value with rat stomachs [2] was “induced no ulceration”. Further, the “Mean Pathology score” value in the data set with rat stomachs [3] is listed as 1.43. Besides, the “Pathology score, individual rat” value with rat stomachs [3] is 0.5 and 1.0 and 0.0 and 4.0 and 7.0.

The values are drawn from patent US5358936A, “Anionic furanose derivatives, methods of making and using the same” (Gordon; Paul, priority 1991, dated 1994).
